{"source": "patent US8552064B2", "about": "“Suramin and derivatives thereof as topical microbicide and contraceptive” (Eastern Virginia Medical School, priority 2005, dated 2013)", "key": {"rabbit sperm": {"system": "rabbit sperm", "assay": "Rabbit contraceptive efficacy, intravaginal application", "format": "in vivo", "description": "Semen was collected from New Zealand White (NZW) male rabbits with the aid of an artifical vagina, pooled and adjusted with a modified Tyrode's albumin lactate pyruvate (TALP) medium to 50 million motile sperm per milliliter. Ovulation was induced in females by injection of 200 IU of human chorionic gonadotropin (hCG) intravenously. Under the ex-vivo (in-vitro) mixing protocol, sperm were incubated with indicated suramin test compounds in a tube for 15 minutes at 37° C. prior to insemination (0.5 mL) as described in Anderson R. A., et al. J. Androl., 21: 862-875 (2000). […] Sperm-compound contact, in this case, took place in vivo, inside the vagina. Insemination and administration of the compound was performed with a flexible, 12 cm long polyurethane catheter. The main endpoints for both protocols were the number of implantation sites counted 11 days after insemination and pregnancy rate. Such sites were counted by visual inspection of the tubes."}, "[1]": {"system": "HIV-1 Ba-L in monocyte-derived dendritic cells", "assay": "Infection of T cells by HIV associated to dendritic cells (DC/T assay)", "format": "cell-based", "details": "for EC50: Human immunodeficiency virus 1, Dendritic cell", "description": "Monocyte-derived dendritic cells (MO-DC), infected with the NSI/R5 strain Ba-L at 10-3 multiplicity of infection, were cultured alone or with autologous CD4(+) T cells at a ratio 1:1 or 1:10. A dilution series of suramin was added to the MO-DC, 1 hour prior to infection and remained present during infection. After infection, cells were extensively washed and compounds were added at the same concentrations as for the pre-incubation. Medium and compounds were refreshed twice a week. After 2 weeks, HIV Ag was measured in supernatants with ELISA and EC50 values (effective conc. 50%) were calculated using linear regression (Vanham G et al, AIDS 2000, 14: 2299-2311). The results of this assay are provided herein."}, "HIV-1 clinical isolates": {"system": "HIV-1 clinical isolates", "assay": "Clinical isolates in PBMC assay", "format": "cell-based", "description": "Peripheral blood mononuclear cells (PBMCs) were obtained from normal hepatitis and HIV-1 negative donors by ficoll hypaque gradient separation. Briefly, anti-coagulated blood is diluted 1:1 with Dulbecco's phosphate buffered saline without Ca^++ and Mg^++ (PBS) and layered over 14 mL of Lymphocyte separation media in a 50 ml centrifuge tube. Tubes were then centrifuged for 30 minutes at 600×g. Banded PBMCs were gently aspirated from the resulting interface and subsequently washed 2× with PBS by low speed centrifugation. The mononuclear cells were counted, viability was determined by Trypan Blue dye exclusion and the cells were resuspended in RPMI 1640 medium supplemented with 15% FBS (heat inactivated), 2 mM L-glutamine, 100 U/mL penicillin, 100 μg/mL streptomycin, and 10 μg/mL gentamycin with 20 U/mL recombinant IL-2 (R&D Systems, Minneapolis, Minn.). […]\nHuman peripheral blood mononuclear cells from a minimum of two donors, that have been stimulated with PHS- and IL-2, were counted and their viability was determined by Trypan Blue dye exclusion and mixed in equal rations. Pooled donors were used to minimize the variability observed between individual donors, which results from quantitative and qualitative differences in HIV infection, and overall response to the PHA and IL-2 of primary lymphocyte populations. […]"}, "HSV-1": {"system": "HSV-1", "assay": "HSV plaque assay, HSV-1", "format": "cell-based", "details": "Human alphaherpesvirus 1; read-out: IC50 against HSV-1"}}, "note": "Where two headings read alike, the source gives them in different places."}
{"smiles": "Cc1ccc(C(=O)Nc2ccc(S(=O)(=O)O)c3cc(S(=O)(=O)O)cc(S(=O)(=O)O)c23)cc1NC(=O)c1cccc(NC(=O)Nc2cccc(C(=O)Nc3cc(C(=O)Nc4ccc(S(=O)(=O)O)c5cc(S(=O)(=O)O)cc(S(=O)(=O)O)c45)ccc3C)c2)c1", "note": "[Suramin, 8,8′-(carbonylbis(imino-3,1-phenylenecarbonylimino(4-methyl-3,1-phenylene)carbonylimino))bis-1,3,5-naphthalene trisulfonic acid]", "values": [{"measurement": "inhibition (contraceptive), Vaginal Application", "setting": "rabbit sperm; 1.25% in Replens", "result": 100, "unit": "% inhibition"}, {"measurement": "inhibition, Vaginal Application", "setting": "rabbit sperm; 2%", "result": 44, "unit": "% at 2%"}, {"measurement": "inhibition, Vaginal Application Combo", "setting": "rabbit sperm; 2% suramin + 2% sorbitan mono laurate or 0.1% N-9", "result": 100, "unit": "% inhibition at"}, {"measurement": "reduction in PR", "setting": "rabbit sperm; 5%, intravaginal administration", "result": 75, "unit": "% inhibition"}, {"measurement": "Potency, Contraception, rabbit inseminated sperm (Vaginal Application)", "setting": "rabbit sperm; rabbit, in vivo", "result": "Moderate"}, {"measurement": "Potency, Vaginal Application Combo", "setting": "rabbit sperm; rabbit, in vivo", "result": "High"}, {"measurement": "Potency, Vaginal Application, Replens", "setting": "rabbit sperm; rabbit, in vivo", "result": "High"}, {"measurement": "Potency, HIV-1 DC", "setting": "[1]", "result": "High"}, {"measurement": "IC50", "setting": "[1]; Human immunodeficiency virus 1, BAL, Dendritic cell, read-out: IC50 dendritic cell (DC)/T lymphocyte model", "result": 17, "unit": "µg/mL"}, {"measurement": "EC50", "setting": "[1]; DC infected with BaL cultured alone, read-out: EC50, Dendritic Cells (DC)", "result": "56 ± 6", "unit": "µg/mL"}, {"measurement": "EC50", "setting": "[1]; DC infected with BaL with autologous T lymphocytes 1:1, read-out: EC50, DC + T Cells (1:1)", "result": "57.5 ± 5", "unit": "µg/mL"}, {"measurement": "EC50", "setting": "[1]; DC infected with BaL with autologous T lymphocytes 1:10, read-out: EC50, DC + T Cells (1:10)", "result": "17 ± 3", "unit": "µg/mL"}, {"measurement": "Potency, HIV-1 Clin Isolates", "setting": "HIV-1 clinical isolates", "result": "High"}, {"measurement": "IC50", "setting": "HIV-1 clinical isolates; Human immunodeficiency virus 1, PBMC, read-out: IC50 Clin Isolates", "result": 14.6, "unit": "µg/mL"}, {"measurement": "IC50", "setting": "HSV-1", "result": 30, "unit": "µg/mL"}]}
